Source: ChEMBL document CHEMBL4411299, “A class of novel tubulin polymerization inhibitors exert effective anti-tumor activity via mitotic catastrophe” (Eur J Med Chem, 2019)
Calls of active or inactive are those of the source. No cut-off for these calls is given here.

What was measured:
Tubulin (Homo sapiens) = Tubulin (Homo sapiens) (UniProt P68371+Q9H4B7+P0DPH7+P68366+Q13509+Q71U36+P04350+Q3ZCM7+P07437+P68363+Q9BQE3+Q6PEY2+Q13885+Q9BVA1+Q9BUF5); assay: Inhibition of tubulin polymerization in human HeLa cells assessed as induction of microtubule fiber breakdown at 0.02 uM after 12 hrs by DAPI staining-based confocal fluorescence microscopic analysis; assay type: cell-based
HeLa [1] = assay: Induction of apoptosis in human HeLa cells assessed as necrotic cells at 0.05 uM after 24 hrs by Annexin V-FITC/propidium iodide staining-based flow cytometric analysis (reference value: 0.05%); assay type: functional
[2] = Apparent volume of distribution in Sprague-Dawley rat at 1.5 mg/kg, iv administered as single dose by LC-MS/MS analysis; assay type: ADME, organism-based; conditions: in vivo, read-out: Vd(app)
[3] = AUC (0 to infinity) in male Sprague-Dawley rat at 1.5 mg/kg, iv administered as single dose by LC-MS/MS analysis; assay type: ADME, organism-based; set-up: dose 1.5 mg/kg, time infinity, route intravenous; conditions: in vivo
[4] = Clearance in female Sprague-Dawley rat at 1.5 mg/kg, iv administered as single dose by LC-MS/MS analysis; assay type: ADME, organism-based; conditions: in vivo
[5] = Half life in rat liver microsomes at 5 uM in presence of NADPH regenerating system by LC-MS/MS analysis; assay type: ADME, Microsome
[6] = Half life in female Sprague-Dawley rat at 1.5 mg/kg, iv administered as single dose by LC-MS/MS analysis; assay type: ADME, organism-based; conditions: in vivo
HeLa [7] = assay: Induction of apoptosis in human HeLa cells assessed as viable cells at 0.05 uM after 24 hrs by Annexin V-FITC/propidium iodide staining-based flow cytometric analysis (reference value: 92.8%); assay type: functional; conditions: read-out: Activity
[8] = Toxicity in mouse xenografted with human HeLa cells assessed as change in liver weight at 5 to 20 mg/kg, iv administered every other day up to 20 days; assay type: organism-based; conditions: in vivo, 480 h
[9] = AUC (0 to t) in female Sprague-Dawley rat at 1.5 mg/kg, iv administered as single dose by LC-MS/MS analysis; assay type: ADME, organism-based; conditions: in vivo
[10] = Cmax in male Sprague-Dawley rat at 1.5 mg/kg, iv administered as single dose by LC-MS/MS analysis; assay type: ADME, organism-based; set-up: dose 1.5 mg/kg, route intravenous; conditions: in vivo
[11] = AUC (0 to infinity) in female Sprague-Dawley rat at 1.5 mg/kg, iv administered as single dose by LC-MS/MS analysis; assay type: ADME, organism-based; set-up: dose 1.5 mg/kg, time infinity, route intravenous; conditions: in vivo
HeLa [12] = assay: Antitumor activity against human HeLa cells xenografted in nude mouse assessed as tumor weight at 20 mg/kg, iv administered every other day up to 20 days (reference value: 1.014 +/- 0.116g); assay type: functional
HeLa [13] = assay: Inhibition of colony formation in human HeLa cells after 2 weeks by crystal violet staining-based assay; assay type: functional, cell-based
Tubulin (Sus scrofa) = Tubulin (Sus scrofa) (UniProt P02554+P02550); assay: (§1) Inhibition of porcine brain tubulin polymerization
Tubulin = Tubulin (Sus scrofa, UniProt P02554+P02550); assay: as §1
[14] = MRT (0 to t) in female Sprague-Dawley rat at 1.5 mg/kg, iv administered as single dose by LC-MS/MS analysis; assay type: ADME, organism-based; conditions: in vivo
A549 = assay: Antiproliferative activity against human A549 cells after 48 hrs by MTT assay; assay type: functional; conditions: A549, 48 h
HeLa [15] = assay: Induction of ROS generation in human HeLa cells at 0.02 to 0.2 uM after 12 hrs by DCFH-DA staining-based flow cytometric analysis; assay type: functional, cell-based
HeLa [16] = assay: Cell cycle arrest in human HeLa cells assessed as reduction in accumulation of cells at G1 phase up to 0.4 uM after 24 hrs by propidium iodide staining-based flow cytometric analysis; assay type: functional
[17] = Half life in male Sprague-Dawley rat at 1.5 mg/kg, iv administered as single dose by LC-MS/MS analysis; assay type: ADME, organism-based; conditions: in vivo
HeLa [18] = assay: Antiproliferative activity against human HeLa cells after 48 hrs by MTT assay; assay type: functional
HeLa [19] = assay: Induction of apoptosis in human HeLa cells assessed as early apoptotic cells at 0.1 uM after 24 hrs by Annexin V-FITC/propidium iodide staining-based flow cytometric analysis (reference value: 3.65%); assay type: functional
[20] = MRT (0 to t) in Sprague-Dawley rat at 1.5 mg/kg, iv administered as single dose by LC-MS/MS analysis; assay type: ADME, organism-based; conditions: in vivo
[21] = Toxicity in mouse xenografted with human HeLa cells assessed as change in spleen weight at 5 to 20 mg/kg, iv administered every other day up to 20 days; assay type: organism-based; conditions: in vivo, 480 h

Tubulin (Sus scrofa), sequence (P02550 whole entry, looked up): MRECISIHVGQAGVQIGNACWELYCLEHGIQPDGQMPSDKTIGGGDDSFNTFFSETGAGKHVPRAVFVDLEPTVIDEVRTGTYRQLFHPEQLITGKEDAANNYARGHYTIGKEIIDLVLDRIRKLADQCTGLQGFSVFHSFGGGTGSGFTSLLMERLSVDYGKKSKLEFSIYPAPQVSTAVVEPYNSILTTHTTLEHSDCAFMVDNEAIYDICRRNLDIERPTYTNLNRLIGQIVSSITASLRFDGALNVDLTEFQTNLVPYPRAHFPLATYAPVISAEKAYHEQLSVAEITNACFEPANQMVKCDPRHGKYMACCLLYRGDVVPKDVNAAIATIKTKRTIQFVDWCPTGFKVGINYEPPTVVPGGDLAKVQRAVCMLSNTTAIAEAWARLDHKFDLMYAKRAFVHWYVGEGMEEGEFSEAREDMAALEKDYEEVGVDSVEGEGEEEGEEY
Tubulin (Sus scrofa), sequence (P02554 whole entry, looked up): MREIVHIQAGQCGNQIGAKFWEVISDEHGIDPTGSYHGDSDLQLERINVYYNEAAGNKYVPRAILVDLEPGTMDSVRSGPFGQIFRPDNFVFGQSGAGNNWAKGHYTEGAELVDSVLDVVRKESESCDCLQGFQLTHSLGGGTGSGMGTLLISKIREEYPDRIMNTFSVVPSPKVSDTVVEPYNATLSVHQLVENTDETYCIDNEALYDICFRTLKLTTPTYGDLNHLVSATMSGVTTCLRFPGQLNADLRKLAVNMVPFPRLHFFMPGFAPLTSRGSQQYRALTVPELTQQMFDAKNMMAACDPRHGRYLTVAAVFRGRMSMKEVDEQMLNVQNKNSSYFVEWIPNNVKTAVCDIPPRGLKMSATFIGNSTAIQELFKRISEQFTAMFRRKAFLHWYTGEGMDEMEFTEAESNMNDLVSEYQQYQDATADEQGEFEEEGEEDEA

In the case of `COC(=O)N1N=C(c2cccc(C)c2)CC1c1cc(OC)c(OC)c(OC)c1` (stereo not given), the Activity (Tubulin (Homo sapiens)) is reported as “Active”, the Activity (HeLa [1]) is reported as 0.46% and the Vd [2] is reported as 5.03 L/kg. The AUC(0-inf) [3] was 491 ng·h/mL, the clearance [4] was 79.7 mL/min/kg and the half-life at 5 µM [5] was 37 min. The half-life [6] was 55.8 min, the viability at 0.05 µM (HeLa [7]) was 84.4% and the Activity [8] was “Non-Toxic”. For the same molecule, the AUC(0-t) [9] was 319 ng·h/mL, the Cmax [10] was 658 ng/mL and the AUC(0-inf) [11] was 336 ng·h/mL. For the same molecule, the Activity (HeLa [12]) was 0.266 g, the inhibition (HeLa [13]) was “Dose-dependent effect” and the inhibition (Tubulin (Sus scrofa)) was “Dose-dependent effect”. The IC50 (Tubulin) was 1.49 µM, the MRT last [14] was 57.6 min and the GI50 (A549) was 300 nM. For the same molecule, the Activity (HeLa [15]) was “Active”, the Activity (HeLa [16]) was “Active” and the half-life [17] was 52.2 min. For the same molecule, the GI50 (HeLa [18]) was 50 nM, the Activity (HeLa [19]) was 17.3% and the MRT last [20] was 54.6 min. For the same molecule, the Activity [21] was “Non-Toxic”.
